From PMC8041284, “Tunable Methacrylamides for Covalent Ligand Directed Release Chemistry” (Journal of the American Chemical Society, 2021)

Molecular target: BTK (Homo sapiens, UniProt Q06187)
Test: biochemical
Conditions: read-out: BTK inhibition (%), 0.75 uM BTK, […] probe 3l, 15 min preincubation

Sequence of BTK (Q06187 402-655 limits assumed): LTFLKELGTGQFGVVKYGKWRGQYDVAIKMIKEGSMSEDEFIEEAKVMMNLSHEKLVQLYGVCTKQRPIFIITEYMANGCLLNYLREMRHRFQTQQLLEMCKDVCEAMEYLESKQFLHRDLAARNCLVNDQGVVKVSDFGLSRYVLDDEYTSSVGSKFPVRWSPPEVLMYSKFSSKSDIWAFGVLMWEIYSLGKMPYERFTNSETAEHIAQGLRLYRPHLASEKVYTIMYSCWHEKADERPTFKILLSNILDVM

| inhibition at 10 µM [%] | Structure (SMILES) |
| --- | --- |
| 1.6 | Cc1nc2ccc(CN(C)c3ccc(C(=O)N[C@@H](CCC(=O)O)C(=O)O)s3)cc2c(=O)[nH]1 [PCM-0095076] |
| 75.5 | CCCCc1oc2ccccc2c1C(=O)c1cc(I)c(OCCN(CC)CC)c(I)c1 [PCM-0064561] |
| 9.4 | N[C@@]1(C(=O)O)CS(=O)(=O)[C@H]2[C@H](C(=O)O)[C@H]21 [PCM-0215191] |
| -11.7 | Cn1cc(CNCC2CCN(c3ncc(C(=O)NO)cn3)CC2)c2ccccc21 [PCM-0095073] |
| 35.5 | COC(=O)c1ccc([C@H]2C3Nc4ccccc4C3C[C@H](C(=O)OC)N2C(=O)CCl)cc1 (stereo partly shown) [PCM-0214584] |
| -1.4 | CS(=O)(=O)OCCCCOS(C)(=O)=O [PCM-0085767] |
| -5.5 | CC[C@H](Nc1ncnc2nc[nH]c12)c1nc2cccc(F)c2c(=O)n1-c1ccccc1 [PCM-0095266] |
| 59.9 | COCCOC(=O)C1=C(C)NC(C)=C(C(=O)OC/C=C/c2ccccc2)C1c1cccc([N+](=O)[O-])c1 (stereo not shown) [PCM-0065102] |
| 17.8 | OC[C@@H](O)[C@@H](O[C@@H]1O[C@H](CO)[C@H](O)[C@H](O)[C@H]1O)[C@H](O)[C@@H](O)CO [PCM-0090607] |
| 82.6 | Cc1cc(=O)oc2c(C=O)c(O)ccc12 [PCM-0215276] |
| 6.2 | N=c1ccn2c(n1)O[C@H]1[C@H](O)[C@@H](CO)O[C@H]12 [PCM-0094879] |
| 8.6 | CCN1CC(CCN2CCOCC2)C(c2ccccc2)(c2ccccc2)C1=O (stereo not shown) [PCM-0095590] |
| -10.1 | CC1(C)S[C@@H]2[C@H](NC(=O)Cc3ccccc3)C(=O)N2[C@H]1C(=O)O [PCM-0214771] |
| -10.9 | CCCc1nc2c(C)cc(-c3nc4ccccc4n3C)cc2n1Cc1ccc(-c2ccccc2C(=O)O)cc1 [PCM-0086294] |
| 80 | O=C1NC(=O)C(c2cnc3ccccn23)=C1c1cn2c3c(cc(F)cc13)CN(C(=O)N1CCCCC1)CC2 [PCM-0215438] |
| -20.2 | CC(=O)OCC(CCn1cnc2cnc(N)nc21)COC(C)=O [PCM-0065613] |
| -13.1 | C=C1CCN([C@H](C)[C@](O)(Cn2cncn2)c2ccc(F)cc2F)CC1 [PCM-0215992] |
| 3.1 | NC(=O)Cc1c[nH]c2ccccc12 [PCM-0216587] |
| -2.1 | O=C(O)CC1CC(c2ccccc2)=NO1 (stereo not shown) [PCM-0215292] |
| -17.9 | COCCn1c2c([n+](Cc3cnccn3)c1C)C(=O)c1ccccc1C2=O [PCM-0094937] |
| 70 | CC1=C(C(=O)OC(C)C)C(c2cccc([N+](=O)[O-])c2)C(C(=O)OC2CN(C(c3ccccc3)c3ccccc3)C2)=C(N)N1 (stereo not shown) [PCM-0095544] |
| 11 | O=C(O)c1nn(Cc2ccc(Cl)cc2Cl)c2ccccc12 [PCM-0065622] |
| -3.9 | Cc1ccc2oc(=O)ccc2c1 [PCM-0215023] |
| -11.7 | CC(C(=O)O)c1ccc2c(c1)Cc1cccnc1O2 (stereo not shown) [PCM-0086477] |

| inhibition at 10 µM [%] | Structure (SMILES) |
| --- | --- |
| -0.8 | COc1ccccc1N1CCN(CCCNc2cc(=O)n(C)c(=O)n2C)CC1 [PCM-0064976] |
| 28.8 | O=C1C(c2[nH]c3ccccc3c2O)=Nc2ccccc21 [PCM-0215050] |
| 6.2 | CC1(COc2ccc3c(c2)ncn3-c2ccc3cccc(N4CCC(N)CC4)c3n2)COC1 [PCM-0095459] |
| -7.7 | Nc1ccc(Oc2ccc(-c3ccc(Oc4ccc(N)cc4)cc3)cc2)cc1 [PCM-0216586] |
| -16.3 | CC(C)NCC(O)c1ccc(NS(C)(=O)=O)cc1 (stereo not shown) [PCM-0065402] |
| 22.8 | CCC(=O)O[C@]1(C(=O)CCl)[C@@H](C)C[C@H]2[C@@H]3C[C@H](F)C4=CC(=O)C=C[C@]4(C)[C@@]3(F)[C@@H](O)C[C@@]21C [PCM-0214768] |
| 78 | N#Cc1cc2cc(CN3CCC(Nc4ncnc5sc(CC(F)(F)F)cc45)CC3)ccc2[nH]1 [PCM-0215651] |
| 119 | C=CC(=O)N1CCC(Oc2cc3c(Nc4ccc(Cl)c(Cl)c4F)ncnc3cc2OC)CC1 [PCM-0215416] |
| -7.8 | C[C@]12CC[C@@H]3c4ccc(OC(=O)c5ccccc5)cc4CC[C@H]3[C@@H]1CC[C@@H]2O [PCM-0095636] |
| 5.4 | O=C(c1cncc(Br)c1)N1CCC(N2CCCC2)CC1 [PCM-0095791] |
| 37.4 | Oc1cc(O)c2c(c1)O[C@H](c1ccc(O)c(O)c1)[C@@H](O)C2 [PCM-0064631] |
| 16.6 | OCCn1cc(-c2ccc3c(c2)CC/C3=N\O)c(-c2ccncc2)n1 [PCM-0094883] |
| -4.7 | CC1CNC(=O)NC1=O (stereo not shown) [PCM-0214881] |
| 2.8 | COC(=O)c1cc(OC)c2c(c1-c1c(C(=O)OC)cc(OC)c3c1OCO3)OCO2 [PCM-0216065] |
| -16.3 | C[C@@]12CC[C@@H]3[C@@](CC[C@H]4[C@@]3(C)CCC[C@@]4(C)C(=O)O)(CC1=O)C2 [PCM-0215049] |
| 0 | Oc1ccc2c(c1)OC[C@]1(O)Cc3cc(O)c(O)cc3[C@H]21 [PCM-0216323] |
| 2.3 | CC12CC(c3ccoc3)OC13CC(OC3=O)C1C3CC(CC12)OC3=O (stereo not shown) [PCM-0216321] |
| 9.3 | Clc1ncnc2nc[nH]c12 [PCM-0215064] |
| -9.3 | C#CCN[C@@H]1CCc2ccccc21 [PCM-0090264] |
| 84.2 | CCOC(=O)COc1ccc(/C=C2\SC(=S)NC2=O)cc1OC [PCM-0215662] |
| 7.8 | OC[C@@H](O)[C@@H](O)CO [PCM-0214773] |
| 0 | COC1=C2C[C@@H](C)C[C@H](OC)[C@H](O)[C@@H](C)/C=C(\C)[C@H](OC(N)=O)[C@@H](OC)/C=C\C=C(/C)C(=O)NC(=CC1=O)C2=O [PCM-0095416] |
| 13.8 | COc1ccc(/C=C/C(=O)Nc2ccccc2C(=O)O)cc1OC [PCM-0065010] |
| 82.8 | Cc1cccc(Nc2nc(N[C@@H]3CCCC[C@@H]3N)ncc2C(N)=O)c1 [PCM-0215814] |

| inhibition at 10 µM [%] | Structure (SMILES) |
| --- | --- |
| 9 | COc1ccc(Cl)cc1NC(=O)Nc1cc(C)nc2ccccc12 [PCM-0095597] |
| 116 | CN(C)c1ccc(C(=C2C=CC(=[N+](C)C)C=C2)c2ccc(N(C)C)cc2)cc1 [PCM-0090111] |
| -18.5 | CC(CCc1ccccc1)NCC(=O)c1ccc(O)c(C(N)=O)c1 (stereo not shown) [PCM-0216052] |
| -13.2 | CCc1nc(N)nc(N)c1-c1ccc(Cl)cc1 [PCM-0085830] |
| -0.8 | Oc1c(Cl)cc(Cl)c2cccnc12 [PCM-0085913] |
| 41.7 | Cc1ccc(-c2n[nH]c3c2C(c2cccc(O)c2)N(c2ccc(C(=O)O)cc2)C3=O)cc1 (stereo not shown) [PCM-0216247] |
| -10 | O=c1ccc2cc(O)ccc2o1 [PCM-0216289] |
| -10.8 | O=C(c1ccc(C(=O)N2CCC(N3CCCC3)CC2)c(Nc2ccccc2)c1)N1CCC(N2CCCC2)CC1 [PCM-0095781] |
| -6.9 | O=C(NCc1ccncc1)C12CC3CC(C1)CC(c1ccc(Cl)cc1)(C3)C2 [PCM-0215553] |
| 54.1 | O=C(O)c1ccc(C=C2SC(=S)N(c3cccc(C(F)(F)F)c3)C2=O)cc1 [PCM-0095759] |
| 14.5 | O=C1NC(=O)/C(=C/c2ccc3nccc(-c4ccncc4)c3c2)S1 [PCM-0094973] |
| 40.9 | O=[N+]([O-])c1ccc2c(c1)S(=O)(=O)C=C2 [PCM-0065368] |
| 11.7 | CC(C)(C)C(=O)Oc1ccc(S(=O)(=O)Nc2ccccc2C(=O)NCC(=O)O)cc1 [PCM-0064760] |
| 17 | C=C1c2cccc(O)c2C(O)=C2C(=O)[C@]3(O)C(O)=C(C(N)=O)C(=O)[C@@H](N(C)C)[C@@H]3[C@@H](O)[C@H]12 [PCM-0215189] |
| -6 | COc1cc2nc(N3CCN(C(=O)c4ccco4)CC3)nc(N)c2cc1OC [PCM-0065512] |
| 31.1 | COC(=O)C1=C(C)NC(C)=C(C(=O)OCC(C)C)C1c1ccccc1[N+](=O)[O-] (stereo not shown) [PCM-0086426] |
| 62.3 | CCCCc1oc2ccc(NS(C)(=O)=O)cc2c1C(=O)c1ccc(OCCCN(CCCC)CCCC)cc1 [PCM-0095292] |
| -19.5 | CC1(C)S[C@@H]2[C@H](NC(=O)[C@H](NC(=O)N3CCN(S(C)(=O)=O)C3=O)c3ccccc3)C(=O)N2[C@H]1C(=O)O [PCM-0214758] |
| -15.6 | Nc1ccn([C@@H]2O[C@H](CO)[C@@H](O)[C@H]2O)c(=O)n1 [PCM-0095215] |
| 91.7 | C=CC(=O)Nc1cc(Nc2nccc(-c3c[nH]c4ccccc34)n2)c(OC)cc1N(C)CCN(C)C [PCM-0215489] |
| -6.9 | Cc1ccccc1C(C(=O)NC1CCCCC1)N(C(=O)Cn1ccnc1C)c1cccc(F)c1 (stereo not shown) [PCM-0215210] |
| -10.8 | COc1cc2c(NC3CCN(C(C)C)CC3)nc(C3CCCCC3)nc2cc1OCCCN1CCCC1 [PCM-0215758] |
| 7.7 | OC[C@H]1O[C@@](CO)(OC[C@@]2(OC[C@@]3(O[C@H]4O[C@H](CO)[C@@H](O)[C@H](O)[C@H]4O)O[C@H](CO)[C@@H](O)[C@@H]3O)O[C@H](CO)[C@@H](O)[C@@H]2O)[C@@H](O)[C@@H]1O [PCM-0216359] |
| 9 | CN1C(C(=O)Nc2ccccn2)=C(O)c2ccccc2S1(=O)=O [PCM-0064770] |

| Structure (SMILES) | inhibition at 10 µM [%] |
| --- | --- |
| Nc1nc(F)nc2c1ncn2[C@@H]1O[C@H](CO)[C@@H](O)[C@@H]1O [PCM-0086227] | -19.5 |
| CN1CCC[C@H]1c1cccnc1 [PCM-0215258] | -1.6 |
| C[C@@H]1O[C@@H](O[C@H]2[C@H](O[C@H]3C[C@]4(C)[C@H](C[C@@H](O)[C@@H]5[C@@H]([C@]6(C)CC[C@H](C(C)(C)O)O6)CC[C@]54C)[C@@]4(C)CC[C@H](O)C(C)(C)[C@H]34)O[C@H](CO)[C@@H](O)[C@@H]2O)[C@H](O)[C@H](O)[C@H]1O [PCM-0216458] | 1.5 |
| CCc1c2c(nc3ccccc13)-c1cc3c(c(=O)n1C2)COC(=O)[C@]3(O)CC [PCM-0215967] | -20.8 |
| NC(=O)c1cccc(-c2cccc(OC(=O)NC3CCCCC3)c2)c1 [PCM-0095495] | -6.2 |
| C=CC(=C)C [PCM-0216155] | 1.5 |
| CN(C)CCc1ccc(O)cc1 [PCM-0094832] | -21.8 |
